Laboratory results taken from US20120083473A1, “TREATMENT OF CONDITIONS BY TOLL-LIKE RECEPTOR MODULATORS” (priority 2010, published 2012).

Columns and labels:
[1] = Dissolution in suitable solvents for testing; assay type: physicochemical
[2] = test system: murine peritoneal macrophages (PEC); experiment: Dose-response of M1 and M2 gene expression in PEC (RT PCR); assay type: cell-based, mice; conditions: PECs treated 4 hours or 20 hours with increased concentrations
Experimental: A third group of experiments was performed to investigate the dose-response effects of TMX, its potency as compared to classical inflammatory signals (e.g. LPS) and the activation of selected transcription factors playing an established role in tolerance, as well as in the induction of M1/M2 polarized inflammatory programs. PECs treated for 4 hours or 20 hours with 100 ng/mlof LPS or increased concentrations of TMX or 1V209 were analyzed by RT PCR for the expression of representative M1 (TNFα, IL-12p40) and M2 (IL-10, TGFβ) genes. […] In this experiment, as compared to 1V209, TMX is a lower inducer of M1 genes expression.
Cell Culture and treatments. Peritoneal exudate cells (PEC) were harvested from mice injected with 1 ml of 3% (w/v) thioglycollate medium (Difco, Detroit, Mich.) 4 days prior to isolation. PECs were incubated in RPMI 1640 medium, containing 10% fetal bovine serum, 2 mM glutamine and 100 U/ml of penicillin-streptomycin. The concentration for the different treatments were as follows: LPS (100 ng/ml) (Lipopolysaccharide from Salmonella Abortus Equi S-form, Alexis), CpG (1 μg/ml), Pam3CSK (2 μg/ml), Poly I:C (10 μg/ml), Loxorubine (100 μM), flagellin (100 ng/ml) IL-1β (20 ng/ml), TNF (20 ng/ml), IL-10 (20 ng/ml) (Peprotech), IFNγ (200 U/ml) (Peprotech). To induce TMX tolerance, cells were incubated in the presence of TMX (10 μM or 1 μM) for 20 hrs, washed and maintained in RPMI medium for 2 hrs and then re-challenged with TMX (10 μM) for 4 hrs. To induce TMX-tolerization (T/M) cells were treated with TMX for 20 hrs, washed and then maintained in medium for additional 6 hours, without TMX re-challenge. To induce M1-activation, cells were incubated in medium for 20 hrs, washed, left in medium for 2 hrs and finally stimulated with TMX (10 μM) for 4 hrs. Control cells (M/M) were cultured in medium for the entire period of the experiment. For gene expression analysis, total RNA was extracted from TMX treated and untreated cells with trizol (Invitrogen), according to the manufacturer's instructions. To analyze cytokines and chemokines production supernatants were collected 24 hrs after the second challenge with TMX.
Real-Time PCR. Total RNA was purified as previously described. Briefly, reverse transcription from 1 μg of RNA was performed using cDNA Archive kit (Applied Biosystem, NJ, USA). Real time PCR was performed using Power Syber Green PCR Master Mix (Applied Biosystem, NJ, USA) and detected by 7900HT Fast Real-Time System (Applied Biosystem, NJ, USA). Data were processed using the SDS2.2.2 software (Applied Biosystem, NJ, USA). Results were normalized to the expression of the housekeeping gene β-actin and then expressed as folds of upregulation, with respect to the control cell population.

human monocytes (Mo) = experiment: M1/M2 gene expression in human monocytes (Real-Time PCR); assay type: cell-based; conditions: excluding Mo from one healthy donor
Experimental: To evaluate the effects of TMX on human cell activation, monocytes were isolated from buffy coats obtained from four different healthy donors. With respect to macrophage tolerance, cells were treated with Compound 2 (10 microM) up to 20 hours and then re-challenged with agonists/ligands of different TLRs (TLR2, TLR4, TLR5, TLR9, TLR7, etc. . . . ), including the TLR7 unconjugated ligand 1V209 (free pharmacophore) at a concentration of 10 microM.
Cell Culture and treatments. Monocytes (Mo) were obtained from buffycoats collected from healthy donors as previously described (Porta C et al, PNAS 2009). Cells were incubated in RPMI 1640 medium, containing 10% fetal bovine serum, 2 mM glutamine and 100 U/ml of penicillin-streptomycin. The concentrations for the different treatments were as follows: LPS (100 ng/ml) (Lipopolysaccharide from Salmonella Abortus Equi S-form, Alexis), CpG (1 microg/ml), Pam3CSK (2 microg/ml), Poly I:C (10 microg/ml), Loxorubine (100 microM), flagellin (100 ng/ml). To induce TMX tolerance, cells were incubated in the presence of TMX (10 microM) for 20 hrs, washed and maintained in RPMI medium for 2 hrs and then re-challenged with TMX (10 microM) for 4 hrs. To induce TMX-tolerization (T/M) cells were treated with TMX for 20 hrs, washed and then maintained in medium for additional 6 hours, without TMX re-challenge. To induce M1-activation cells were incubated in medium for 20 hrs, washed, left in medium for 2 hrs and finally stimulated with TMX (10 microM) for 4 hrs. Control cells (M/M) were cultured in medium for the entire period of the experiment. For gene expression analysis, total RNA was extracted from TMX treated and untreated cells with trizol (Invitrogen), according to the manufacturer's instructions. To analyze cytokines and chemokines production supernatants were collected 24 hrs after the second challenge with TMX.
Real-Time PCR. Total RNA was purified as previously described. Briefly, reverse transcription from 1 microgram of RNA was performed using a cDNA Archive kit (Applied Biosystem, NJ, USA). Real time PCR was performed using Power Syber Green PCR Master Mix (Applied Biosystem, NJ, USA) and detected by 7900HT Fast Real-Time System (Applied Biosystem, NJ, USA). Data were processed using the SDS2.2.2 software (Applied Biosystem, NJ, USA). Results were normalized to the expression of the housekeeping gene 8-actin and then expressed as folds of upregulation, with respect to the control cell population.

[3] = PK analysis after i.v. administration in mice; assay type: in vivo

Question: For CCCCCCCC/C=C\CCCCCCCC(=O)OCC(COP(=O)(O)OCCNC(=O)c1ccc(Cn2c(=O)[nH]c3c(N)nc(OCCOC)nc32)cc1)OC(=O)CCCCCCC/C=C\CCCCCCCC (stereo not shown) [compound (6), 2-(4-((6-amino-2-(2-methoxyethoxy)-8-oxo-7H-purin-9(8H)-yl)methyl)benzamido)ethyl 2,3-bis(oleoyloxy)propyl phosphate], which “dissolution in suitable solvents for testing” value [1] is on record?
Answer: difficulty in dissolution

Question: Which “induction of both M1 and M2 gene expression” value [2] does the source give for COCCOc1nc(N)c2[nH]c(=O)n(Cc3ccc(C(=O)O)cc3)c2n1 [Compound 1V209, 4-((6-amino-2-(2-methoxyethoxy)-8-oxo-7H-purin-9(8H)-yl)methyl)benzoic acid, reference compound] here?
Answer: dose-dependent induction

Question: What about the “potency as compared to Compound 2 in terms of induction of both M1 and M2 gene expression” value (human monocytes (Mo)) of the same compound?
Answer: higher potency

Question: With COCCOc1nc(N)c2nc(O)n(Cc3ccc(C(=O)NCCOCCOCCOCCOCCOCCOCCOCCOCCOCCOCCn4cc(CCC(=O)O)nn4)cc3)c2n1 [Compound 6, 3-(1-(1-(4-((6-amino-8-hydroxy-2-(2-methoxyethoxy)-9H-purin-9-yl)methyl)phenyl)-1-oxo-5,8,11,14,17,20,23,26,29,32-decaoxa-2-azatetratriacontan-34-yl)-1H-1,2,3-triazol-4-yl)propanoic acid] as the compound, how does the “AUC in comparison with Compound 3” value [3] read?
Answer: lower

Question: And the “Cmax in comparison with Compound 3” value [3]?
Answer: lower

Question: And the “clearance in comparison with Compound 3” value [3]?
Answer: higher

Question: What about the “half life in comparison with Compound 3” value [3] of the same compound?
Answer: longer
